Experimental findings from US20060127505A1, “Anti-inflammatory formulations” (priority 2002, published 2006) are described below.

SMILES strings stand for the structures. Entries after “also recorded” stand apart in the source; their conditions may differ. Marks after values point to notes of the source that are not given here.

For assay [1], the system named is ovalbumin(OA)-induced asthma in guinea pigs. In words: Ovalbumin-induced asthma in guinea pigs: inflammatory cells in BAL fluid. As to conditions: for Eosinophils / Macrophages / Neutrophils: BAL fluid 24 hours after OV challenge. Type of assay: in vivo, guinea pig. How it is done:
The effect combinations of vitamin C, astaxanthin, and ginkolide on asthma-associated disease parameters ovalbumin(OA)-induced asthma in guinea pigs was evaluated. Twenty-four hours following OA challenge, animals are sacrificed and numbers of inflammatory cells (eosinophils, neutrophils, macrophages) are measured in bronchoalveolar lavage (BAL) fluid; and cAMP and cGMP concentrations in the lung tissue. The experiments were carried out as follows. Male Hartley guinea pigs (250-350 g) were sensitized by intramuscular injections of 0.35 ml of a 5% (W/V) ovalbumin (OA)/saline solution into each thigh on days 1 and 4. Guinea pigs were ready for asthmatic challenge after 25 days of ovalbumin injection. Asthmatic challenge was carried out with ovalbumin aerosol, and bronchoalveolar lavage (BAL) was done 24 hours later. The numbers of eosinophils, neutrophils, and macrophages in the BAL fluid were counted. Twenty-four hours after the aerosol OA challenge, guinea pigs were killed by cervical dislocation and exsanguinated by severing the axillary arteries. Lungs were lavaged with 50 ml of DulBecco's phosphate-buffered saline (aliquots of 10 ml), which were aspirated after gentle chest massage. BAL fluid was centrifuged at 2200 rpm (1100×g) for 10 min, supernatant was aspirated, and pellets were resuspended in 5 ml 0.25% NaCl to lyse residual erythrocytes. This dispersion was centrifuged at 2200 rpm (1100×g) for 10 min, supernatant was aspirated, and pellets were resuspended 5 ml 0.9% NaCl. Total cell counts were done by hemocytometry using trypan blue stain. Slides were prepared on a Shandon Cytospin 2 (Pittsburgh, Pa.) at 300 rpm for 5 min, fixed and stained. Differential cell counts were done using standard morphologic criteria to classify cells as eosinophils, neutrophils, or macrophages, and the results were expressed in cell numbers. The dose-responsive effect of AX, EGb761, and vitamin C administered independently for suppression of asthma-associated parameters in allergen-induced, asthmatic guinea pigs was determined. Ibuprophen (IB) was used as the positive control. Concentration of inflammatory cells in bronchoalveolar lavage (BAL) fluid and levels of cAMP and cGMP in lung tissue were measured in guinea pigs 24 hours following challenge with OV. Data is reported as mean±SD of measurements taken in 6 animals per dosage cohort. *p<0.05 compared to corresponding values of OV antigen-challenged, drug-free control group. The dose-responsive effect of AX, EGb761, and vitamin C administered in combination for suppression of asthma-associated parameters in allergen-induced, asthmatic guinea pigs was determined. The combination of these three components was given each day for each guinea pig as a “cocktail”. Concentration of inflammatory cells in bronchoalveolar lavage (BAL) fluid and levels of cAMP and cGMP in lung tissue were measured in guinea pigs 24 hours following challenge with OV. Data is reported as mean±SD of measurements taken in 6 animals per dosage cohort. *p<0.05 compared to corresponding values of OV antigen-challenged, drug-free control group.

In assay [2] the test system is cAMP and cGMP concentrations in the lung tissue. In words: Ovalbumin-induced asthma in guinea pigs: cAMP and cGMP in lung tissue (radioimmunoassay). The note with it: lung tissue 24 hours after OV challenge. Type of assay: in vivo, guinea pig. How it is done:
The effect combinations of vitamin C, astaxanthin, and ginkolide on asthma-associated disease parameters ovalbumin(OA)-induced asthma in guinea pigs was evaluated. Twenty-four hours following OA challenge, animals are sacrificed and numbers of inflammatory cells (eosinophils, neutrophils, macrophages) are measured in bronchoalveolar lavage (BAL) fluid; and cAMP and cGMP concentrations in the lung tissue. The experiments were carried out as follows. Male Hartley guinea pigs (250-350 g) were sensitized by intramuscular injections of 0.35 ml of a 5% (W/V) ovalbumin (OA)/saline solution into each thigh on days 1 and 4. Guinea pigs were ready for asthmatic challenge after 25 days of ovalbumin injection. Asthmatic challenge was carried out with ovalbumin aerosol, and bronchoalveolar lavage (BAL) was done 24 hours later. The numbers of eosinophils, neutrophils, and macrophages in the BAL fluid were counted. Biopsies from lung tissues, cAMP and cGMP were measured using commercially available radioimmunoassay kits (Amersham). Immediately after sampling, lung biopsies were frozen by means of a Wollenberger clamp prechilled in liquid nitrogen. Samples were powdered with a pestle and mortar in liquid nitrogen and trichloro acetic acid (TCA) was added to the powdered frozen samples ([…] of tissue). Samples were further homogenized in the frozen TCA in the braying mortar and then centrifuged at 14,000×g for 10 min at 4° C. The supernatants were extracted 6 times in water-saturated diethylether, evaporated and assayed for cGMP by radioimmunoassay using liquid scintillation counter (Packard, Tri-Carb 2100TR). The dose-responsive effect of AX, EGb761, and vitamin C administered independently for suppression of asthma-associated parameters in allergen-induced, asthmatic guinea pigs was determined. Ibuprophen (IB) was used as the positive control. Concentration of inflammatory cells in bronchoalveolar lavage (BAL) fluid and levels of cAMP and cGMP in lung tissue were measured in guinea pigs 24 hours following challenge with OV. […] The dose-responsive effect of AX, EGb761, and vitamin C administered in combination for suppression of asthma-associated parameters in allergen-induced, asthmatic guinea pigs was determined. The combination of these three components was given each day for each guinea pig as a “cocktail”. Concentration of inflammatory cells in bronchoalveolar lavage (BAL) fluid and levels of cAMP and cGMP in lung tissue were measured in guinea pigs 24 hours following challenge with OV.

Turning to `CC(C)Cc1ccc(C(C)C(=O)O)cc1` (centres unmarked) [IB, Ibuprophen, reference compound], the Eosinophils in assay [1] (10 mg/kg) is recorded as 5.4 ± 0.8 cell × 10^6/animal; in assay [1] (100 mg/kg), 4.7 ± 0.6 cell × 10^6/animal; in assay [1] (500 mg/kg), 3.0 ± 0.8* cell × 10^6/animal; in assay [1] (1000 mg/kg), 2.9 ± 0.5* cell × 10^6/animal. The Macrophages in assay [1] (10 mg/kg) is 9.5 ± 0.8 cell × 10^6/animal; in assay [1] (100 mg/kg), 9.0 ± 1.3 cell × 10^6/animal; in assay [1] (500 mg/kg), 4.7 ± 1.3* cell × 10^6/animal; in assay [1] (1000 mg/kg), 4.3 ± 0.9* cell × 10^6/animal. Further, the Neutrophils in assay [1] (10 mg/kg) was 5.7 ± 0.7 cell × 10^5/animal; in assay [1] (100 mg/kg), 5.0 ± 0.7 cell × 10^5/animal; in assay [1] (500 mg/kg) it was 3.1 ± 0.9* cell × 10^5/animal; in assay [1] (1000 mg/kg), 3.1 ± 0.5* cell × 10^5/animal. Also, the cAMP in assay [2] (10 mg/kg) is reported as 7.1 ± 0.6 pmol (mg protein)^−1; in assay [2] (100 mg/kg) it was 7.3 ± 0.9 pmol (mg protein)^−1; in assay [2] (500 mg/kg), 8.2 ± 0.8 pmol (mg protein)^−1; in assay [2] (1000 mg/kg), 8.1 ± 0.9 pmol (mg protein)^−1. In addition, the cGMP in assay [2] (10 mg/kg) is 1.1 ± 0.2 pmol (mg protein)^−1; in assay [2] (100 mg/kg), 1.1 ± 0.2 pmol (mg protein)^−1; in assay [2] (500 mg/kg) it was 1.4 ± 0.2 pmol (mg protein)^−1; in assay [2] (1000 mg/kg) it was 1.6 ± 0.2 pmol (mg protein)^−1.

For `O=C1O[C@H]([C@@H](O)CO)C(O)=C1O` [Vitamin C, ascorbic acid], the Eosinophils in assay [1] (50 mg/kg) is recorded as 5.5 ± 0.5 cell × 10^6/animal; in assay [1] (100 mg/kg), 5.5 ± 0.8 cell × 10^6/animal; in assay [1] (200 mg/kg) it was 4.8 ± 1.1 cell × 10^6/animal; in assay [1] (400 mg/kg), 3.5 ± 0.9* cell × 10^6/animal. Besides, the Macrophages in assay [1] (50 mg/kg) is 9.5 ± 0.9 cell × 10^6/animal; in assay [1] (100 mg/kg), 9.8 ± 0.9 cell × 10^6/animal; in assay [1] (200 mg/kg) it was 9.2 ± 0.8 cell × 10^6/animal; in assay [1] (400 mg/kg), 7.2 ± 1.5* cell × 10^6/animal. In addition, the Neutrophils in assay [1] (50 mg/kg) was determined as 5.4 ± 0.6 cell × 10^5/animal; in assay [1] (100 mg/kg), 5.6 ± 0.8 cell × 10^5/animal; in assay [1] (200 mg/kg) it was 5.0 ± 0.8 cell × 10^5/animal; in assay [1] (400 mg/kg), 4.7 ± 0.9 cell × 10^5/animal. Moreover, the “protection against OV-induced asthma” value in assay [1] (components used separately: 10 mg/kg AX, 200 mg/kg vit C, 10 mg/kg GB) was “failed to protect; also recorded: failed to reduce the severity of asthma”. Moreover, the cAMP in assay [2] (50 mg/kg) is 6.8 ± 0.5 pmol (mg protein)^−1; in assay [2] (100 mg/kg) it was 7.1 ± 0.8 pmol (mg protein)^−1; in assay [2] (200 mg/kg), 7.9 ± 0.9 pmol (mg protein)^−1; in assay [2] (400 mg/kg), 7.9 ± 0.8 pmol (mg protein)^−1. Also, the cGMP in assay [2] (50 mg/kg) is on record as 1.1 ± 0.2 pmol (mg protein)^−1; in assay [2] (100 mg/kg), 1.0 ± 0.2 pmol (mg protein)^−1; in assay [2] (200 mg/kg), 1.2 ± 0.2 pmol (mg protein)^−1; in assay [2] (400 mg/kg) it was 1.5 ± 0.2 pmol (mg protein)^−1.
